Measurements taken from patent publication US20210255193A1, “LYSINE REACTIVE PROBES AND USES THEREOF” (The Scripps Research Institute, priority 2017, published 2021).

Tests used:
Experiment in all cases: competitive isoTOP-ABPP
Format in all cases: binding
[1] = biological target: T1, CPOX Coproporphyrinogen-III oxidase, mitochondrial (Homo sapiens, UniProt P36551); design: key to isoTOP-ABPP reactivity ratio at lysine P36551_K404: R = MS1 peak area ratio, DMSO (heavy) / compound-treated (light); conditions: 50 uM, 231 sol, in vitro; for R value (DMSO/fragment) for probe 1 labeling: P36551_K404
T1 construct: isoTOP-ABPP experiments performed in cell lysates (in vitro); endogenous in cells; host or cells: soluble proteome of human cancer cell lines (MDA-MB-231; Ramos and Jurkat also prepared)
T1 sequence (P36551 111-454): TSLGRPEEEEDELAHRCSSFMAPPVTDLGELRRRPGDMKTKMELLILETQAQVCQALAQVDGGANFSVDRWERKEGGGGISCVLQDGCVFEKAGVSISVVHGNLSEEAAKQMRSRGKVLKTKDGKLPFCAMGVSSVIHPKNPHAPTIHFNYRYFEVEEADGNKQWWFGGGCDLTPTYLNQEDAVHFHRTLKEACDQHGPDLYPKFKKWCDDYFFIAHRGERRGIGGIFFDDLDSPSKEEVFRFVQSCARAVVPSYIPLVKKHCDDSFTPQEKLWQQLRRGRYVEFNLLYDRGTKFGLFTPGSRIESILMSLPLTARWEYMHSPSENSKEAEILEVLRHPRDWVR
Description: (§1) In vitro covalent fragment treatment for isoTOP-ABPP. All compounds were made up as solutions in DMSO (100×) and were used at a final concentration of 50 μM for activated esters and 100 μM for guanidinylating agents. For each profiling sample, 0.5 ml of lysate was treated with 5 μl of the 100× compound stock solution or 5 μl of DMSO. Samples were treated with activated esters for
(§2) STP-alkyne labeling and click chemistry. For concentration-dependent reactivity measurements by isoTOP-ABPP, 0.5 ml proteome aliquots were treated at ambient temperature with 1 mM STP-alkyne 1 (5 μl of 100 mM stock in DMSO) and 0.1 mM STP alkyne 1 (5 μl of 10 mM stock in DMSO), respectively. For competitive isoTOP-ABPP, after in vitro fragment treatment (detailed above), the samples were labeled for 1 h at ambient temperature with 0.1 mM STP-alkyne 1 (5 μl of 10 mM stock in DMSO). Samples were conjugated by copper-mediated azide-alkyne cycloaddition (CuAAC) to either the light (1 mM STP-alkyne or fragment treated) or heavy (0.1 mM STP-alkyne or DMSO treated) TEV tags (10 μl of 5 mM stocks in DMSO, final concentration=100 μM) using tris(2-carboxyethyl)phosphine hydrochloride
(§3) R value calculation and processing. The ratios of light and heavy MS1 peaks for each unique peptide were quantified with a CIMAGE software using default parameters (3 MS1 acquisitions per peak and signal to noise threshold set to 2.5). For reactivity measurements by isoTOP-ABPP, the R value was calculated from the ratio of MS1 peak areas, comparing the 1 mM STP alkyne sample (light TEV tag) with the 0.1 mM STP alkyne sample (heavy TEV tag). For competitive isoTOP-ABPP, the R value was calculated from the ratio of MS1 peak areas, comparing the DMSO treated sample (heavy TEV tag) with the compound treated sample (light TEV tag). […] Ratios for unique peptide entries are calculated for each experiment; overlapping peptides with the same modified lysine (for example, different charge states, MudPIT chromatographic steps or tryptic termini) are grouped together and the median ratio is reported as the final ratio (R). The peptide ratios reported by CIMAGE were further filtered to ensure the removal or correction of low-quality ratios in each individual data set. The quality filters applied were the following: removal of half tryptic peptides; for ratios with high standard deviations from the median (90% of the median or above) the lowest ratio was taken instead of the median; removal of peptides with R=20 and only a single MS2 event triggered during the elution of the parent ion; manual annotation of all the peptides with ratios of 20, removing any peptides with low quality elution profiles that remained after the previous curation steps (only done for competitive isoTOP-ABPP).
(§4) Cross-data processing for fragment screening. For compound treated samples, biological replicates of the same condition were averaged, if the standard deviation was below 60% of the mean; otherwise, for lysines with at least one R value <4 for a particular compound, the lowest value of the ratio set was taken. For lysines, where all R values for a particular compound were ≥4, the average was reported. For peptides containing several possible modified lysines, the lysine with the highest number of quantification events was used for analysis and the remaining, redundant peptides were reported as alternative modification sites. Peptides included in the aggregate dataset (those used for further bioinformatics and statistical analyses) were required to have been quantified in 2 experiments for competitive isoTOP-ABPP. Lysines were categorized as liganded, if they had at least one ratio R≥4 (hit fragments). For liganded lysines with R=20 for all liganding events, lysines were required to have been quantified with R=20 in two separate experiments and were further required to have been quantified with R<20 in one additional experiment.

[2] = biological target: T2, TPMT Thiopurine S-methyltransferase (Homo sapiens, UniProt P51580); design: key to isoTOP-ABPP reactivity ratio at lysine P51580_K32: R = MS1 peak area ratio, DMSO (heavy) / compound-treated (light); conditions: 50 uM, 231 sol, in vitro; for R value (DMSO/fragment) for probe 1 labeling: P51580_K32
T2 construct: isoTOP-ABPP experiments performed in cell lysates (in vitro); endogenous in cells; host or cells: soluble proteome of human cancer cell lines (MDA-MB-231; Ramos and Jurkat also prepared)
T2 sequence (P51580 1-245): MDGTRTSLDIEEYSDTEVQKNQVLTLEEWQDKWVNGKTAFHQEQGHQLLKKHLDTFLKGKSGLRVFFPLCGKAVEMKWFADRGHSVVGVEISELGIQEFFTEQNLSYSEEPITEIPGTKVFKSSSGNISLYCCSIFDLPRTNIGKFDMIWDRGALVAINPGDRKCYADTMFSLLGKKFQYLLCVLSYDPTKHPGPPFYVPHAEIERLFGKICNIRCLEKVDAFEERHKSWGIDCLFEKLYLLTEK
Description: as §1, §2, §3, §4

[3] = biological target: T3, TTR Transthyretin (Homo sapiens, UniProt P02766); conditions: for R value (DMSO/fragment) for probe 1 labeling: P02766_K35
T3 construct: isoTOP-ABPP experiments performed in cell lysates (in vitro); endogenous in cells; host or cells: MDA-MB-231 soluble lysate
Method in brief: (§5)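 Cell lysate treated in vitro with fragments (50 μM activated esters, 100 μM guanidinylating agents) or DMSO, labelled 1 h at ambient temperature with 0.1 mM STP-alkyne, CuAAC-tagged with light/heavy TEV tags, analysed by MS. R = DMSO/compound MS1 peak-area ratio; lysines with R≥4 called liganded.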

[4] = biological target: T4, FAM136A Protein FAM136A (Homo sapiens, UniProt Q96C01); conditions: 50 uM, 231 sol, in vitro
T4 construct: isoTOP-ABPP experiments performed in cell lysates (in vitro); endogenous in cells; host or cells: soluble proteome of human cancer cell lines (MDA-MB-231; Ramos and Jurkat also prepared)
Method in brief: as §5

T4 sequence (Q96C01 whole entry): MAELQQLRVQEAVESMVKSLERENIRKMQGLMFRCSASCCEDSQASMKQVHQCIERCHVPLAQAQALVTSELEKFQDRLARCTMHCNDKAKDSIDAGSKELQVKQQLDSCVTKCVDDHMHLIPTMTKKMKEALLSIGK

Row | Compound | R value (DMSO/fragment) for probe 1 labeling [1] | R value (DMSO/fragment) for probe 1 labeling [2] | isoTOP-ABPP reactivity ratio at lysine P36551_K404 [1] | isoTOP-ABPP reactivity ratio at lysine P51580_K32 [2] | also measured
1 | O=C(CCc1cn(-c2ccccc2)nc1-c1ccccc1)Oc1c(F)c(F)c(F)c(F)c1F [fragment 19, Pentafluorophenyl 3-(1,3-diphenyl-1H-pyrazol-4-yl)propanoate] | 10.8 | 1.3 |  |  | 
2 | Cn1cc(CC(=O)Oc2c(F)c(F)c(F)c(F)c2F)c2ccccc21 [fragment 22, Pentafluorophenyl 2-(1-methyl-1H-indol-3-yl)acetate] | 1.1 | 1.3 |  |  | R value (DMSO/fragment) for probe 1 labeling ([3]; 50 uM, 231 sol, in vitro): 2.6
3 | COc1cc(CCC(=O)Oc2c(F)c(F)c(F)c(F)c2F)cc(OC)c1OC [fragment 23, Pentafluorophenyl 3-(3,4,5-trimethoxyphenyl)propanoate] | 1.3 | 6.4 |  |  | R value (DMSO/fragment) for probe 1 labeling ([3]; 50 uM, 231 sol, in vitro): 1.0
4 | O=C(Oc1c(F)c(F)c(F)c(F)c1F)C1CCN(C(=O)OCc2ccccc2)CC1 [fragment 24, 1-Benzyl 4-(pentafluorophenyl) piperidine-1,4-dicarboxylate] |  |  | 1.2 | 1.0 | 
5 | O=C(Oc1c(F)c(F)c(F)c(F)c1F)c1ccc2ccccc2n1 [fragment 25, Pentafluorophenyl quinoline-2-carboxylate] |  |  | 1.3 | 2.9 | 
6 | O=C(CCc1coc2cc(F)ccc2c1=O)Oc1c(F)c(F)c(F)c(F)c1F [fragment 26, Pentafluorophenyl 3-(7-fluoro-4-oxo-4H-chromen-3-yl)propanoate] |  |  | 1.1 | 1.0 | isoTOP-ABPP reactivity ratio at lysine Q96C01_K99 [4]: 0.9
7 | O=C(CN1C(=O)c2ccccc2C1=O)Oc1c(F)c(F)c(F)c(F)c1F [fragment 27, Pentafluorophenyl 2-(1,3-dioxoisoindolin-2-yl)acetate] |  |  | 1.2 | 1.3 | 
8 | CCn1cc(C(=O)Oc2c(F)c(F)c(F)c(F)c2F)c(=O)c2ccc(C)nc21 [fragment 28, Pentafluorophenyl 1-ethyl-7-methyl-4-oxo-1,4-dihydro-1,8-naphthyridine-3-carboxylate] |  |  | 0.9 | 1.1 | 
9 | O=C(Oc1ccc([N+](=O)[O-])cc1[N+](=O)[O-])c1cc(C(F)(F)F)cc(C(F)(F)F)c1 [fragment 31, 2,4-Dinitrophenyl 3,5-bis(trifluoromethyl)benzoate] |  |  | 1.1 | 2.5 | isoTOP-ABPP reactivity ratio at lysine P02766_K35 ([3]; 50 uM, 231 sol, in vitro): 16.1; targeting of K35 ([3]; TTR K35): preferentially targeted
